# Experimental data: patent publication US12274774B2, “Cosmetic composition derived from natural products for improving skin health” (SEOUL NATIONAL UNIVERSITY R&DB FOUNDATION, priority 2021, dated 2025)
# Legend:
# [1] = test system: Human-derived normal fibroblasts; assay: Cell proliferation efficacy (MTT method); type: cell-based; conditions: 10 μM, 72 hours culture, FIG. 1
# Experimental: • 1) Human-derived normal fibroblasts were cultured. • 2) The cells were inoculated in an appropriate number, and after 24 hours, starvation was performed for 24 hours. • 3) The cells were cultured for 72 hours in media treated with samples at different concentrations, respectively. • 4) Cell activity was measured and analyzed by the MTT method.
# [2] = Antioxidant efficacy (DPPH assay); type: biochemical; conditions: 1 μM to 50 μM, absorbance at 517 nm, FIG. 2
# Experimental: • 1) 115 μL of 70% ethanol was dispensed to each of 96 wells. • 2) 5 μL of each sample and positive control was dispensed, and the absorbance was measured at 517 nm to measure the absorbance before the reaction. • 3) 80 μL of a DPPH solution was dispensed. • 4) After the reaction, the absorbance was measured at 517 nm, and the result was analyzed by using the absorbance values before and after the reaction.
# B16F10 cells [3] = assay: Whitening efficacy: inhibition of B16F10 intracellular melanin synthesis; type: cell-based; conditions: 10 μM to 50 μM, α-MSH treated B16F10 cells, 72 hours, FIG. 3
# Experimental: • 1) B16F10 cells were cultured. • 2) The cells were inoculated in an appropriate number, and after 24 hours, all groups except blank were treated with α-MSH and samples, respectively. • 3) The cells were cultured for 72 hours in culture media treated with respective samples. • 4) The cells were lysed, the supernatant was separated, and the absorbance value of the supernatant was measured. • 5) The amount of protein in each supernatant was measured and analyzed by the BCA method. • 6) The melanin synthesis value measured in the supernatant was corrected into the amount of protein to calculate the amount of melanin synthesis per unit cell.
# B16F10 cells [4] = assay: Whitening efficacy: inhibition of B16F10 extracellular melanin synthesis; type: cell-based; conditions: 10 μM to 50 μM, α-MSH treated B16F10 cells, 72 hours, culture media, FIG. 4
# Experimental: • 1) B16F10 cells were cultured. • 2) The cells were inoculated in an appropriate number, and after 24 hours, all groups except blank were treated with α-MSH and samples, respectively. • 3) The cells were cultured for 72 hours in culture media treated with respective samples. • 4) The absorbance values of the cell culture media were measured. • 5) The cells were lysed, the supernatant was separated, and the amount of protein was measured by the BCA method to correct the amount of melanin synthesis. • 6) The measured melanin synthesis value was corrected into the amount of protein to calculate the amount of melanin synthesis per unit cell.
# [5] = biological target: T1, tyrosinase (melanin synthase) (Homo sapiens, UniProt P14679); assay: Whitening efficacy: inhibition of tyrosinase activity in pigment cells; type: cell-based; conditions: 1 μM to 50 μM, human-derived normal pigment cells, 72 hours, FIG. 5
# T1 construct: The cells were lysed, the supernatant was separated; endogenous in cells; host or cells: human-derived normal pigment cells
# T1 sequence (P14679 19-529): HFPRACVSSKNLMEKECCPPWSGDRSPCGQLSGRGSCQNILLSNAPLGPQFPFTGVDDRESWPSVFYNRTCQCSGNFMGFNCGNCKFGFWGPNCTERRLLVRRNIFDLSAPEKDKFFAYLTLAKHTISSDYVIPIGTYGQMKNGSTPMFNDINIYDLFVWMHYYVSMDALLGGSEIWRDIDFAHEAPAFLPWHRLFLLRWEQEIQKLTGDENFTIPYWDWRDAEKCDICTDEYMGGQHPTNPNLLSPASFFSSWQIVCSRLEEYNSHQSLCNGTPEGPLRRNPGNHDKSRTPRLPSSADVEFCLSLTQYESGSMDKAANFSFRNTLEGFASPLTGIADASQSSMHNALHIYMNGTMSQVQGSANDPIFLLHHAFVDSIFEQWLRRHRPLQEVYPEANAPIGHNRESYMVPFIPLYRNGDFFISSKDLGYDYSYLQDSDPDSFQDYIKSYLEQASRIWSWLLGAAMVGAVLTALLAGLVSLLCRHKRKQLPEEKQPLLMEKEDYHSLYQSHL
# Experimental: • 1) Human-derived normal pigment cells were inoculated in an appropriate number and cultured for 1 day. • 2) The culture medium was replaced with culture media treated with respective samples and cultured for 72 hours. • 3) The cells were lysed, the supernatant was separated, and the absorbance value of the supernatant was measured at 475 nm at 30 minute intervals while the supernatant was allowed to react with dopa, a reactant, at 37° C. • 4) The amount of protein in the cell lysis supernatant was measured by the BCA method to correct a tyrosinase (melanin synthase) measurement value.
# [6] = test system: Human-derived normal fibroblasts; assay: Wrinkle improvement efficacy (collagen synthesis); type: cell-based; conditions: 10 μM to 20 μM, UV-irradiated fibroblasts, FIG. 6
# Experimental: • 1) Human-derived normal fibroblasts were inoculated at 2×10^5/6 well and cultured. • 2) Culture was performed for 1 day under starvation conditions. • 3) The cells were treated with samples at different concentrations, respectively, and cultured for 24 hours. • 4) The cells were washed and then irradiated with UV, followed by culture for 48 hours. • 5) The amount of collagen expression in the cell culture medium was measured and analyzed.
# Propionibacterium acnes = assay: Anti-acne efficacy (antibacterial efficacy); type: cell-based; conditions: 20 μM to 200 μM, 72 hours anaerobic culture, FIG. 7
# Experimental: • 1) Propionibacterium acnes, anaerobic acne bacteria, were cultured under anaerobic culture conditions. • 2) The strain was prepared by adjusting the turbidity to McFarland standard NO. 1, followed by dilution of 1/20 in a liquid culture medium. • 3) Liquid nutrient media were treated with samples at different concentrations, respectively. • 4) After 100 μL of each of the liquid nutrient media treated with the samples was dispensed, 10 μL of the prepared strain was inoculated to each medium. • 5) After the strain was cultured for 72 hours under anaerobic culture conditions, the number of bacteria was measured and analyzed.
# [7] = Measurement of absorbance (spectrophotometer); type: physicochemical; conditions: 10 μM to 50 μM in organic solvent; UV-A (320 nm to 400 nm), UV-B (280 nm to 320 nm), UV-C (200 nm to 280 nm), FIG. 8
# Experimental: • 1) Resveratrone was dissolved in an organic solvent at a concentration of 10 μM to 50 μM. • 2) The absorbance of resveratrone was measured by using a spectrophotometer.
compound,measurement,setting,value
"CC(=O)/C=C/c1ccc2cc(O)cc(O)c2c1 [resveratrone, Resveratrone]",increase in number of cells,[1],20%
same,radical scavenging ability,[2],radical scavenging ability was confirmed
same,inhibition of intracellular melanin synthesis,B16F10 cells [3],inhibition of melanin synthesis was confirmed
same,inhibition of extracellular melanin synthesis,B16F10 cells [4],inhibition of melanin synthesis was confirmed
same,inhibition of tyrosinase activity,[5],inhibition of tyrosinase activity was confirmed
same,increase in collagen synthesis,[6],increase in collagen synthesis was confirmed
same,inhibition of bacterial growth,Propionibacterium acnes,inhibition of bacterial growth was confirmed
same,UV absorption,[7],absorption was confirmed in all UV regions
